From patent US11266613B2 (priority 2017, dated 2022)
Values joined by “and” are separate entries in the source; they are usually repeats but may differ in a detail not shown here. Equal entries are not always repeated. Where two headings read alike, the source gives them in different places.

Assays:
Langendorff preparation = conditions: cited from earlier work; for inhibition of VF: administered before or after ischaemia onset, Langendorff preparation
[1] = tested on: anaesthetised rats, induced infarction, VF; conditions: for VF-free survival after 30 minutes: 2 mg/kg bolus and 0.5 mg/kg/min infusion, IV before induced infarction, control 0%
From the text: Method: • Randomized, blinded and fully powered trial • Groups of n=6 anaesthetised rats • Test solutions delivered by IV to rat tail vein before induced infarction

Rat isolated heart = experiment: Rat isolated heart, 30 min regional ischaemia (coronary ligation), VF incidence (Example 2); conditions: for reduction of incidence of ischaemia-induced VF: 30 min regional ischaemia, test solutions 15 μM and 150 μM
Method: Model Choice: • Rat isolated heart, 30 min regional ischaemia (coronary ligation) • High baseline susceptibility to VF • Scope for detection of VF suppression by drugs

[2] = tested on: patients at high risk of VT or VF following myocardial infarction; conditions: cited from earlier work
[3] = tested on: anaesthetised rats, myocardial infarction
[4] = tested on: arrhythmias which occur early after occlusion of the left coronary artery
Method: Groups of female rats, each in the weight range of 200-300 g, were studied.
The protocol used followed that used in many previous studies seeking dose-related data for novel compounds and reference drugs.
Five minutes after the start of drug delivery the left main coronary artery was occluded (J Mol Cell Cardiol 19: 399-419 1987). This caused a region of ischaemia (verified by the occluded zone, OZ) which was maintained for the duration of the observation period (30 minutes) during which severe arrhythmias caused by the resultant cardiac ischaemia occur (J Mol Cell Cardiol 19: 399-419 1987).
This study was not randomized but was progressed from a low dose to a high dose.
Outcomes were evaluated versus a historical data base of 140 rats treated identically (0.8% saline infusion and coronary artery ligation).
Procedures: • From the ECG, the PR and QT and heart rate were determined. • From a femoral artery catheter, blood pressure (BP) was monitored. • Arrhythmic Score (AS) was determined by counting the number of ventricular premature beats (VPBs) and the occurrence of ventricular tachycardia (VT) and fibrillation (VF) (Cardiovasc Res 22: 656-665, 1988). • Occlusion Zone (OZ) was measured by weight (g) using a dye exclusion method (J Mol Cell Cardiol 19: 399-419 1987).

[5] = tested on: pentobarbitone anaesthetized mice; conditions: bolus dose of 100 mg/kg i.v.
From the text: An initial toxicity study was undertaken in pentobarbitone anaesthetized mice.

[6] = tested on: pentobarbitone anaesthetized rats; conditions: 60 mg/kg i.v. over 20 minutes
Method: A study was carried out to assess tolerability in pentobarbitone anaesthetized rats.

[7] = LNO 3 mg/kg total dose i.v. over 20 min, group mean
[8] = LNO 10 mg/kg total dose i.v. over 20 min, group mean
[9] = LNO 10 mg/kg total dose i.v. over 20 min, individual rat
[10] = LNO 30 mg/kg total dose i.v. over 20 min, group mean
[11] = LNO 100 mg/kg total dose i.v. over 20 min, group mean

## CCN(CC)CC(=O)Nc1c(C)cccc1C [lidocaine, reference compound]
Langendorff preparation
  inhibition of VF: equi-effective
[1]
  VF-free survival after 30 minutes: 67%
[1]; anaesthetised rats, IV
  bradyarrhythmias: led to bradyarrhythmias
  effectiveness against VF: effective
Rat isolated heart; 15 μM, during 30 min ischaemia
  PR interval versus control: higher
Rat isolated heart; isolated rat heart
  reduction of incidence of ischaemia-induced VF: equally effective
Rat isolated heart; isolated rat heart, conclusion
  effect on PR: did show an impact

## O=C(NCC1CCCCN1)c1cc(OCC(F)(F)F)ccc1OCC(F)(F)F (centres unmarked) [flecainide]
[2]
  increase in the risk of mortality: three-fold

## CC[N+]([O-])(CC)CC(=O)Nc1c(C)cccc1C [LNO, lidocaine N-oxide]
Langendorff preparation
  inhibition of VF: equi-effective
  dose-limiting bradycardia or PR interval elongation: didn't induce
[3]; anaesthetised rats, LNO directly to the bloodstream prior to myocardial infarction
  survival rate: 100%
[3]; rat, in vivo
  signs of excessive reduction in contractile function, decreased heart rate, complete heart block or asystole: no signs
[4]; 3 mg/kg to 30 mg/kg i.v.
  therapeutic window from the threshold effective dose: at least ten-fold
[4]; [7]
  AS (arrhythmia score): 4.5
  VF (ventricular fibrillation): 0.25 number of episodes
  VT (ventricular tachycardia): 7.75 number of episodes
[4]; LNO 3 mg/kg total dose i.v. over 20 min, individual rat
  AS (arrhythmia score): 7 and 3 (2×) and 5
[4]; [8]
  AS (arrhythmia score): 1.67
  VT (ventricular tachycardia): 3 number of episodes
[4]; [9]
  AS (arrhythmia score): 1 (2×) and 3
  VF (ventricular fibrillation): 0 number of episodes
[4]; [10]
  AS (arrhythmia score): 2
  VF (ventricular fibrillation): 2 number of episodes
  VT (ventricular tachycardia): 22 number of episodes
[4]; [11]
  AS (arrhythmia score): 2.67
  VF (ventricular fibrillation): 0.33 number of episodes
  VT (ventricular tachycardia): 3.67 number of episodes
[4]; LNO 100 mg/kg total dose i.v. over 20 min, individual rat
  Occl 10’ BP (blood pressure): Dead
[4]; each tested dose: 3, 10, 30 and 100 mg/kg, 30 min regional ischaemia, vs historical controls
  arrhythmia score (AS) versus control: significantly reduced
[4]; highest dose of LNO, 100 mg/kg
  off-target actions: one death due to convulsion
[4]; rat, in vivo, iv
  dose up to which no off-target effects are seen: 30 mg/kg
[4]; regional ischaemia, i.v.
  lowest dose at which antiarrhythmic activity is seen (threshold effective dose): 3 mg/kg
[1]
  VF-free survival after 30 minutes: 67%
[1]; anaesthetised rats, IV
  effectiveness against VF: effective
  time post-infarction before a VF event: longer time
[1]; rat, in vivo, iv
  bradyarrhythmias: did not
[5]
  tolerability of the dose: well tolerated
[6]
  tolerability of the dose: tolerated
Rat isolated heart
  effect on PR: did not show any effect
  effect on heart rate: only a small effect
Rat isolated heart; isolated rat heart
  reduction of incidence of ischaemia-induced VF: equally as effective as lidocaine
